Data taken from patent publication US11731977B2, “SGC stimulators” (Cyclerion Therapeutics, Inc., priority 2016, dated 2023).

What was measured:
[1] = tested on: cGMP in rat primary neurons; assay: cGMP neuronal cell-based assay (Example 3); settings: Primary neuron; rat primary hippocampal neurons; 30 μM DETA-NO; cGMP by LC-MS/MS; 50% of high control (10 μM Compound Y); read-out: Abs EC50
Method: Rat primary neurons were isolated from fetuses of 18-day pregnant Sprague-Dawley females. The fetuses were collected in Hanks' balanced salt solution (HBSS) and brains were rapidly removed. The cerebral hippocampi were isolated and mechanically fragmented. Further tissue digestion was performed with 0.25% (wt/vol) trypsin solution in HBSS without Ca2+ and Mg2+ for 15 min at 37° C. After trypsination, cells were washed and resuspended in neurobasal medium supplemented with 0.5 mM L-glutamine, 12.5 uM glutamic acid, 2% B-27 and 100 U/mL penicillin, and 100 μg/mL streptomycin. Cells were plated at a density of 4×10^4 cells/well in a poly-D-lysine coated 384-well flat clear-bottom plate (Corning Cat No 354662). Cells were incubated 6-7 days at 37° C. in a humidified chamber with 5% CO2. Media was removed and cells were washed 1× with HBSS containing Ca2+ and Mg2+, and replaced with 40 uL HBSS containing 0.5 mM IBMX, and incubated for 15 minutes at 37° C. 10 uL of a 5× stock of test compounds with diethylenetriamine NONOate (DETA-NO) was added. Final concentration of DETA-NO was 30 μM. Cells were incubated for 20 min at 37° C. Medium was removed, 50 uL of ice-cold 10% acetic acid was added, and incubated for 60 minutes at 4° C. Following centrifugation at 4° C. for 5 minutes at 1000×g to pellet cell debris, the supernatant was aspirated to a clean plate and the samples were analyzed for cGMP content. cGMP concentrations were determined from each sample using LC-MS/MS.
Data were normalized to a high control using the following equation: 100*(Sample−Low Control)/(High Control−Low Control), where the low control is the average of 15 samples treated with 1% DMSO, and the high control is the average of 15 samples treated with 10 μM a known sGC stimulator Compound Y. Data were fit using a 4-parameter fit (log(agonist) vs. response—variable slope) using GraphPad Prism Software v.5. n=2 for all compounds. The Absolute EC50 was interpolated from the curve fit and is defined as the concentration at which a given compound elicits 50% of the high control response. Compounds failing to elicit a minimum response of 50% are reported as >30 μM. For compounds run in duplicate or n higher than 2, the result herein given is the geometric mean of the several results obtained.

sGC enzyme = target: T1, sGC enzyme (Homo sapiens, UniProt Q02108+Q02153); assay: cGMP GloSensor cell-based assay, 384-well format (Example 2a); settings: HEK293 GloSensor 40F cGMP cells; 10 μM DETA-NONOate; 50% of high control (30 μM Compound Y); read-out: Abs EC50
T1 construct: sGC enzyme activity values in HEK cells, determined by the GloSensor assay; host or cells: HEK293 cells stably expressing GloSensor 40F cGMP biosensor
T1 sequence (Q02153 1-619): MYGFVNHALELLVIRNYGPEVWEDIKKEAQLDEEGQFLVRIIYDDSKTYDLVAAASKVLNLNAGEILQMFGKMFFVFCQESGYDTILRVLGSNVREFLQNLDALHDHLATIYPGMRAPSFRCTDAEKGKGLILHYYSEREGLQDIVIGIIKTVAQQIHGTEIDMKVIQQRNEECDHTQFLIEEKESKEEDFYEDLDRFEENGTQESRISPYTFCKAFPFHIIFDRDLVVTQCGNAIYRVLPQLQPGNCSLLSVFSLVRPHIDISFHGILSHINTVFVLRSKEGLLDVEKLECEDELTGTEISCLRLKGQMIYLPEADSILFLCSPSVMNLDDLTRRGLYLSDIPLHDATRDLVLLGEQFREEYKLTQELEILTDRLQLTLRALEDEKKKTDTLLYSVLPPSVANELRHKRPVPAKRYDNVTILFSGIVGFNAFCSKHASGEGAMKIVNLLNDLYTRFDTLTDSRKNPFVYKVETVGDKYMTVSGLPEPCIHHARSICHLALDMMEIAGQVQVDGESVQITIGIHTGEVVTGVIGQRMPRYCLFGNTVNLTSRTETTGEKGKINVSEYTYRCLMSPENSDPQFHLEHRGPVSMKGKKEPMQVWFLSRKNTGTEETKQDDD
T1 sequence (Q02108 1-690): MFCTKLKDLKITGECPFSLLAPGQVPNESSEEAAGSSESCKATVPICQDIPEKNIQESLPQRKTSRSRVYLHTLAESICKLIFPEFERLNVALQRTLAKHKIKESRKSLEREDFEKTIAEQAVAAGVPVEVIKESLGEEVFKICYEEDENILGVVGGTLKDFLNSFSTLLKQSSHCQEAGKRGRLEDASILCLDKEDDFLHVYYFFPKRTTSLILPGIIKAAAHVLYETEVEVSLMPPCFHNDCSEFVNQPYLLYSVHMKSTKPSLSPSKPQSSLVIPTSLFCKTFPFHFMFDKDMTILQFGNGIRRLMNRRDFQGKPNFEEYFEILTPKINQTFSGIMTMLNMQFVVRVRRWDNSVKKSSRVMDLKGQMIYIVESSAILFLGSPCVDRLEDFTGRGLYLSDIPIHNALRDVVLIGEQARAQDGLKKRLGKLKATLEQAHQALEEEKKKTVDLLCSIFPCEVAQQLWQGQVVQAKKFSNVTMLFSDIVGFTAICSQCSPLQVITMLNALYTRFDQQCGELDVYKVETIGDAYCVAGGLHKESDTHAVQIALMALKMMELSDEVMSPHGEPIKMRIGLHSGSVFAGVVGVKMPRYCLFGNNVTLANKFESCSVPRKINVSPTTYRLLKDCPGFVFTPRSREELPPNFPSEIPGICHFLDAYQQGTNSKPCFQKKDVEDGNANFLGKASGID
From the text: Human embryonic kidney cells (HEK293) cells expressing GloSensor™ 40F cGMP (Part No: CS182801, Promega) were used to evaluate the activity of test compounds. The luminescent biosensors (engineered luciferase) that were incorporated into these cells detect cGMP formed by the compounds stimulating the sGC enzyme and emit luminescence.
cGMP GloSensor cells were maintained in Dulbecco's Modification of Eagle's Medium (DMEM) supplemented with fetal bovine serum (FBS, 10% final) and hygromycine (200 ug/ml). The day before assay, cells were plated in DMEM with 10% FBS in a 50 μL volume at a density of 1.5×10^4 cells/well in a poly-D-lysine coated 384-well flat white-bottom plate (Corning Cat No 35661). Cells were incubated overnight at 37° C. in a humidified chamber with 5% CO2. The next day, medium was removed and cells were replaced with 40 ul/well of GloSensor™, 2 mM (Promega Cat No E1291). Cells were treated for 90 minutes at 25° C. to allow the substrate to equilibrate in the cells. Test compounds and Diethylenetriamine NONOate (DETA-NONOate, or DETA-NO) was diluted to 3 mM (20×) in serum-free CO2 independent medium and serially diluted at 4× dilutions to create 5× dose curve from which 10 ul was added to the wells (x μM concentration for test compound solution and 10 μM concentration for DETA-NONOate solution; wherein x is one of the following final concentrations: 30000 nM, 7500 nM, 1875 nM, 468.8 nM, 117.2 nM, 29.29 nM, 7.320 nM, 1.830 nM, 0.460 nM, 0.114 nM, and 0.029 nM).
For the kinetics studies, luminescense was measured right away for 0.2 sec per well with Envision (Perkin Elmer). For endpoint SAR screening, data were collected after 55 min incubation at room temperature.
Data were normalized to a high control using the following equation: 100*(Sample−Low Control)/(High Control−Low Control), where the low control is the average of 16 samples treated with 1% DMSO, and the high control is the average of 16 samples treated with 30 μM of Compound Y depicted below. Data were fit using a 4-parameter fit (log(agonist) vs. response—variable slope) using GraphPad Prism Software v.5. n=2 for all compounds. The Absolute (Abs) EC50 was interpolated from the curve fit and is defined as the concentration at which a given compound elicits 50% of the high control response after data normalization as indicated above. Compounds failing to elicit a minimum response of 50% are reported as >30 μM or ND. For compounds run in duplicate or n higher than 2, the result herein given is the geometric mean of the several results obtained.

[2] = Rat cerebrospinal fluid (CSF) pharmacokinetic properties (Example 4); format: in vivo; settings: male, Sprague-Dawley, 10 mg/kg PO, 1 h; for Kp uu at 1 h: unbound CSF/unbound plasma, read-out: Kp,uu (@ 1 h); for concentration at 1 h: CSF, read-out: CSF Conc. (nM @ 1 h)
Method: Protocol PK in rats was determined following oral dosing. For the oral (PO) experiments, a group of 6 male Sprague-Dawley rats with an indwelling catheter placed in the cistema magna were used. The PO group was dosed with 10 mg/kg or 1 mg/kg of a compound formulated as a solution in PEG400. PO doses were administered by oral gavage and delivered to the stomach using a syringe and gavage tube. Following oral dosage administration, the gavage tube was flushed with approximately 0.5 mL of water to ensure complete delivery of the full dose.
Plasma samples were collected as follows: samples of CSF and blood were collected at 1 hour, 2, and optionally at 4 hours post-dosing. CSF samples (0.05 mL) were collected through the intracisternal catheter. Blood samples (0.25 mL) were collected through retro-orbital sampling. These samples were kept on ice until processed for plasma. Blood samples were centrifuged at 3200 rpm for 5 minutes at approximately 5° C. within 1 hour of collection. Plasma was directly transferred to a 96-well plate tube (0.125 mL). Plug caps were placed on the tubes and the tubes frozen at approximately −70° C. and stored until analysis. Plasma was collected and analyzed for the presence of a compound.
Quantitation of Compounds. The compound in question and the internal standard were extracted from plasma and CSF by precipitation. Samples were analyzed using liquid chromatography (LC) with tandem mass spectrometric detection (MS/MS) using electrospray ionization. The standard curve range was from 1 to 1000 ng/mL. Results of the compounds described herein in this assay are illustrated in Table 4a below (10 mg/kg dose) and Tables 4b and 4c below (1 mg/kg).
Kp,uu is defined as the concentration ratio of unbound drug in CSF to unbound drug in plasma. Unbound drug in plasma (or free plasma concentration) is calculated by multiplying the total plasma concentration by the unbound fraction as determined by plasma protein binding. The CSF concentration is then divided by the free plasma concentration to determine the Kp,uu. (See e.g., Di et al., J. Med. Chem., 56, 2-12 (2013))

| EC50 [1] [µM] | EC50 (sGC enzyme) [µM] | Kp uu at 1 h [2] | concentration at 1 h [2] [nM] | Structure (SMILES) |
| --- | --- | --- | --- | --- |
| 0.1 to 1 | 0.1 to 1 | – | – | Fc1ccc(Cc2nc(-c3nc(C(F)(F)F)n[nH]3)cn3ccnc23)cc1 [Compound I-12, 8-(4-Fluorobenzyl)-6-(3-(trifluoromethyl)-1H-1,2,4-triazol-5-yl)imidazo[1,2-a]pyrazine] |
| > 1 | > 1 | – | – | FC(F)(F)c1n[nH]c(-c2cn3ccnc3c(CCC(F)(F)C(F)(F)F)n2)n1 [Compound I-13, 8-(3,3,4,4,4-Pentafluorobutyl)-6-(3-(trifluoromethyl)-1H-1,2,4-triazol-5-yl)imidazo[1,2-a]pyrazine] |
| 0.1 to 1 | 0.1 to 1 | – | – | FC(F)(F)c1n[nH]c(-c2cn3ncnc3c(Cc3ccccc3)n2)n1 [Compound I-15, 8-Benzyl-6-(3-(trifluoromethyl)-1H-1,2,4-triazol-5-yl)-[1,2,4]triazolo[1,5-a]pyrazine] |
| – | ≤ 0.1 | 0.2 | 41 | Cc1ccc(Cc2nc(-c3nc(C(F)(F)F)n[nH]3)cn3ccnc23)cc1F [Compound I-27, 8-(3-Fluoro-4-methylbenzyl)-6-(3-(trifluoromethyl)-1H-1,2,4-triazol-5-yl)imidazo[1,2-a]pyrazine] |
| – | ≤ 0.1 | 0.2 | 20 | Cc1ccc(Cc2nc(-c3nc(C(F)F)n[nH]3)cn3ccnc23)cc1F [Compound I-28, 6-(3-(Difluoromethyl)-1H-1,2,4-triazol-5-yl)-8-(3-fluoro-4-methylbenzyl)imidazo[1,2-a]pyrazine] |

More lines, now with the values behind:

| Structure (SMILES) | EC50 [1] [µM] | EC50 (sGC enzyme) [µM] | Kp uu at 1 h [2] | concentration at 1 h [2] [nM] |
| --- | --- | --- | --- | --- |
| Fc1ccccc1Cc1nc(-c2nc(C(F)(F)C(F)(F)F)n[nH]2)cn2ccnc12 [Compound I-5, 8-(2-Fluorobenzyl)-6-(3-(perfluoroethyl)-1H-1,2,4-triazol-5-yl)imidazo[1,2-a]pyrazine] | ≤ 0.1 | ≤ 0.1 | – | – |
| FC(F)(F)c1n[nH]c(-c2cn3ccnc3c(Cc3ccccc3)n2)n1 [Compound I-6, 8-Benzyl-6-(3-(trifluoromethyl)-1H-1,2,4-triazol-5-yl)imidazo[1,2-a]pyrazine] | ≤ 0.1 | 0.1 to 1 | – | – |
| FC(F)c1n[nH]c(-c2cn3ccnc3c(Cc3ccccc3)n2)n1 [Compound I-7, 8-Benzyl-6-(3-(difluoromethyl)-1H-1,2,4-triazol-5-yl)imidazo[1,2-a]pyrazine] | 0.1 to 1 | 0.1 to 1 | – | – |
| Fc1ccc(F)c(Cc2nc(-c3nc(C(F)(F)F)n[nH]3)cn3ccnc23)c1 [Compound I-8, 8-(2,5-Difluorobenzyl)-6-(3-(trifluoromethyl)-1H-1,2,4-triazol-5-yl)imidazo[1,2-a]pyrazine] | ≤ 0.1 | ≤ 0.1 | – | – |
| Fc1ccc(F)c(Cc2nc(-c3nc(C(F)F)n[nH]3)cn3ccnc23)c1 [Compound I-9, 8-(2,5-Difluorobenzyl)-6-(3-(difluoromethyl)-1H-1,2,4-triazol-5-yl)imidazo[1,2-a]pyrazine] | ≤ 0.1 | ≤ 0.1 | – | – |
